Reference: publication PMC12146746 (Proceedings of the National Academy of Sciences of the …, 2025)

Biological target: ceDCR-1/DRH-1/RDE-4 (Caenorhabditis elegans, UniProt G5EDI8)
Conditions: 5 mM ATP, BLT 42-bp dsRNA with deoxynucleotides

Sequence of ceDCR-1/DRH-1/RDE-4 (G5EDI8 1-1037): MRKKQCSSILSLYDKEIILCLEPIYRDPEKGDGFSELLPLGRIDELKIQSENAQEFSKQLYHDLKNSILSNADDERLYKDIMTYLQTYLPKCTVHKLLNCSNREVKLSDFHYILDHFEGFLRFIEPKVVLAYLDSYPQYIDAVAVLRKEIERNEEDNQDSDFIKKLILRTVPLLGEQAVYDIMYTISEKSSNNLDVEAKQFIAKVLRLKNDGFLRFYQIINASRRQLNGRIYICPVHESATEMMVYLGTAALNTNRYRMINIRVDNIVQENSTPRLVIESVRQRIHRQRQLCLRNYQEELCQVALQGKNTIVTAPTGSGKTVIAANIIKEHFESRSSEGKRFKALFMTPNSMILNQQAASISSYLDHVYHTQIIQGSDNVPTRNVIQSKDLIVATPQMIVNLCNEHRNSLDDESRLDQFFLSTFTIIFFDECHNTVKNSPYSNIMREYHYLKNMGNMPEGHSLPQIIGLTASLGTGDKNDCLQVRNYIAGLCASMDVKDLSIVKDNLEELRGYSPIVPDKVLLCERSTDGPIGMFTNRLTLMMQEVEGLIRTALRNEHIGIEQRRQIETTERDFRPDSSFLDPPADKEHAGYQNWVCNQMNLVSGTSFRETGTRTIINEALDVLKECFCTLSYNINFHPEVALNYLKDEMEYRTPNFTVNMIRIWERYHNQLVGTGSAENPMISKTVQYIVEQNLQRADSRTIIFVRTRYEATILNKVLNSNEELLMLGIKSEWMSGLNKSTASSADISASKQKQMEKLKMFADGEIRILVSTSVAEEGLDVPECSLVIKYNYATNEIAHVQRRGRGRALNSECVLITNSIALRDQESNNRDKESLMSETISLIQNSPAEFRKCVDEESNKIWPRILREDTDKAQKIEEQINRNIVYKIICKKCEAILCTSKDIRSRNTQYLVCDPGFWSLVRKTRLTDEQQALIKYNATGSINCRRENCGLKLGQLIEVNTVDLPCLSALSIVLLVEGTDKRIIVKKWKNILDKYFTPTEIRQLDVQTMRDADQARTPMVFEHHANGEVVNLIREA
Sequence of ceDCR-1/DRH-1/RDE-4 (P34529 whole entry partner): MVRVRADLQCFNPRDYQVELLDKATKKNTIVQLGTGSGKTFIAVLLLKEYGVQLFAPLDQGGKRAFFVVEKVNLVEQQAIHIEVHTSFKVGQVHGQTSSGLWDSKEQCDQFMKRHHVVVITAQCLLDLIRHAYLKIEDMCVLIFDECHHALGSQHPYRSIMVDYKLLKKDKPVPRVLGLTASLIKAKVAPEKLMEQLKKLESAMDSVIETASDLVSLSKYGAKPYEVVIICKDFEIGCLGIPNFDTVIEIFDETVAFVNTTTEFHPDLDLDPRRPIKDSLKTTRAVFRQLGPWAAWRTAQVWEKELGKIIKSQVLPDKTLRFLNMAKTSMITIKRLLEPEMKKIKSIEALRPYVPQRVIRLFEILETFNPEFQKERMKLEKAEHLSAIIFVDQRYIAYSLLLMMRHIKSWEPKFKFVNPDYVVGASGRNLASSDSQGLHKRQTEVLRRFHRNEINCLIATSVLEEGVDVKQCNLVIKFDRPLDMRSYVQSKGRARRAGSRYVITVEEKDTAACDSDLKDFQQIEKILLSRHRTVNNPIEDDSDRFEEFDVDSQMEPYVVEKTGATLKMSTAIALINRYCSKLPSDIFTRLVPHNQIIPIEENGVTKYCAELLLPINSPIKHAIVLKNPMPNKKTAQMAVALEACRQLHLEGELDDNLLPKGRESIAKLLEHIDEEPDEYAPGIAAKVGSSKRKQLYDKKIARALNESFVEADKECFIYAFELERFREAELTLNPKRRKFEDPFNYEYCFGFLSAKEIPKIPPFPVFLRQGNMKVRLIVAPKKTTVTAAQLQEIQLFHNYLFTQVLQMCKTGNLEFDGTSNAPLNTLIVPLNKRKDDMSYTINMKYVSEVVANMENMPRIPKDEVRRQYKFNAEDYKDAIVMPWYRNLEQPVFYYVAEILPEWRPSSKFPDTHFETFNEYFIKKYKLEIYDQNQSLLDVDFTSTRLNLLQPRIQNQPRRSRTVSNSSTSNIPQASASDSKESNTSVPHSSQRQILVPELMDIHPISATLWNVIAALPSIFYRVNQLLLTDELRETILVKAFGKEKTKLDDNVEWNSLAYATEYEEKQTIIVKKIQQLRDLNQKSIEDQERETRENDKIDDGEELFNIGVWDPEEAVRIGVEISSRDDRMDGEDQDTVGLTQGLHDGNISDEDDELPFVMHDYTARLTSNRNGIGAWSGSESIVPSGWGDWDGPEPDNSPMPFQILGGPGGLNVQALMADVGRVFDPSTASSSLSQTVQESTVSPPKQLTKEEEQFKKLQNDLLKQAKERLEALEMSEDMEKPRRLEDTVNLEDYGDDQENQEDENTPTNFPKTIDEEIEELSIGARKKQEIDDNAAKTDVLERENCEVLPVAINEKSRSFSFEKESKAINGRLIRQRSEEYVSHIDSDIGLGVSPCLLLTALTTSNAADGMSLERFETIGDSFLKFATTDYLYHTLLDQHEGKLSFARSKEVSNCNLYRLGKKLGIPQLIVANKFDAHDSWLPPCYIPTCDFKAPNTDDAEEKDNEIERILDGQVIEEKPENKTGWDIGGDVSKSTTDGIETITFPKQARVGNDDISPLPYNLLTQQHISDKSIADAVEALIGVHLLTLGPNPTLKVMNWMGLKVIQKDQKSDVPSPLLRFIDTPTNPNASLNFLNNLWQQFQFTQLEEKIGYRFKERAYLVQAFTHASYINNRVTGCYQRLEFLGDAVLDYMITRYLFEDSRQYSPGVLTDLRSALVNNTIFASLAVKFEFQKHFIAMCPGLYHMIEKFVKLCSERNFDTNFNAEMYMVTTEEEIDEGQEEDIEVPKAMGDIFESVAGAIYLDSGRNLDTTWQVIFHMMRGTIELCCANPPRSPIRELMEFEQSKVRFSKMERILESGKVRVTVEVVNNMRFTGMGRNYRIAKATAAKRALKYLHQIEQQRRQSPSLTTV
Sequence of ceDCR-1/DRH-1/RDE-4 (G5EBF5 1-385 partner): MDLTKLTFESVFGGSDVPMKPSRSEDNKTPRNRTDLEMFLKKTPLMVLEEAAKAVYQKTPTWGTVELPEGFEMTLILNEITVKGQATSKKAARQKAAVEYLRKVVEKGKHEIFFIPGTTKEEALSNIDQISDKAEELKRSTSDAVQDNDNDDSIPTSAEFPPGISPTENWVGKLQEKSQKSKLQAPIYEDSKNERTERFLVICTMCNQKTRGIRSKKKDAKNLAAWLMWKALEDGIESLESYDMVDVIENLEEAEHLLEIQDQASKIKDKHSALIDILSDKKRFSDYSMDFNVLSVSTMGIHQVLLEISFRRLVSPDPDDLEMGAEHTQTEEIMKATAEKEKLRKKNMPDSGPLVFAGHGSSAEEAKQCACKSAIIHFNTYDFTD

Nc1ncnc2c1ncn2[C@@H]1O[C@H](COP(=O)(O)OP(=O)(O)OP(=O)(O)O)[C@@H](O)[C@H]1O [ATP]
streptavidin-displacement (ATP-dependent translocation): Wildtype C. elegans antiviral complex showed ATP-dependent streptavidin displacement on this substrate
